According to ChEMBL document CHEMBL1201862, “PubChem BioAssay data set” (2004):
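Protocol summary: plate cells (96-well), add compound at 5 concentrations, incubate 48 h, interpolate endpoints linearly. Here, GI50 denotes the concentration required for 50% inhibition of growth.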 Calls of active or inactive are those of the source. Cut-off read from the data, not from the text of the source: active = GI50 up to about 1.1 µM and inactive = higher.

How the values were obtained:
Assay in all cases: NCI anticancer screen, dose series, 48 h
[1] = tested on: ACHN
[2] = tested on: K562
[3] = tested on: M14
[4] = tested on: MCF7
[5] = tested on: MOLT-4
[6] = tested on: NCI-H460
[7] = tested on: OVCAR-4
[8] = tested on: OVCAR-5
[9] = tested on: RPMI-8226
[10] = tested on: SK-MEL-2
[11] = tested on: SN12C
[12] = tested on: SR
[13] = tested on: UACC-62
[14] = tested on: HL-60
[15] = tested on: HOP-62
[16] = tested on: NCI-H226
[17] = tested on: OVCAR-8
[18] = tested on: SF-539
[19] = tested on: SK-MEL-28

## O=c1oc2ccc3ccccc3c2cc1-c1nnc(Nc2ccccc2)s1
[1]
  GI50: 13.2 µM (inactive)
[2]
  GI50: 51.5 µM (inactive)
[3]
  GI50: 37.2 µM (inactive)
[4]
  GI50: 34.8 µM (inactive)
[5]
  GI50: 0.757 µM (active)
[6]
  GI50: 18.7 µM (inactive)
[7]
  GI50: 20 µM (inactive)
[8]
  GI50: > 100 µM (inactive)
[9]
  GI50: 20.1 µM (inactive)
[10]
  GI50: 18.9 µM (inactive)
[11]
  GI50: 50.8 µM (inactive)
[12]
  GI50: 19.3 µM (inactive)
[13]
  GI50: 23.8 µM (inactive)

## NNC(=O)CC(=O)Nc1ccc(S(=O)(=O)c2ccc(NC(=O)CC(=O)NN)cc2)cc1
[1]
  GI50: > 100 µM (inactive)
[14]
  GI50: > 100 µM (inactive)
[15]
  GI50: > 100 µM (inactive)
[2]
  GI50: > 100 µM (inactive)
[3]
  GI50: > 100 µM (inactive)
[5]
  GI50: > 100 µM (inactive)
[16]
  GI50: > 100 µM (inactive)
[6]
  GI50: > 100 µM (inactive)
[7]
  GI50: > 100 µM (inactive)
[8]
  GI50: > 100 µM (inactive)
[17]
  GI50: > 100 µM (inactive)
[9]
  GI50: > 100 µM (inactive)
[18]
  GI50: > 100 µM (inactive)
[19]
  GI50: > 100 µM (inactive)
[10]
  GI50: > 100 µM (inactive)
[11]
  GI50: > 100 µM (inactive)
[13]
  GI50: > 100 µM (inactive)

## CC(=O)O[C@H](C[C@@H](C)[C@H]1C(=O)[C@H](O)[C@@]2(C)C3CC[C@H]4C(C)(C)[C@@H](OC5OCC(O)C(O)C5O)CC[C@@]45C[C@@]35CC[C@]12C)[C@@H]1OC1(C)C (stereo not given in full)
[1]
  GI50: 14 µM (inactive)
[14]
  GI50: 2.21 µM (inactive)
[15]
  GI50: 12.1 µM (inactive)
[2]
  GI50: 0.14 µM (active)
[3]
  GI50: 31.1 µM (inactive)
[4]
  GI50: 17.9 µM (inactive)
[16]
  GI50: 17.5 µM (inactive)
[6]
  GI50: 16.9 µM (inactive)
[7]
  GI50: 22.4 µM (inactive)
[8]
  GI50: 16.9 µM (inactive)
[17]
  GI50: 20.2 µM (inactive)
[9]
  GI50: 12.4 µM (inactive)
[18]
  GI50: 16.3 µM (inactive)
[19]
  GI50: 20.3 µM (inactive)
[10]
  GI50: 16 µM (inactive)
[11]
  GI50: 18.9 µM (inactive)
[13]
  GI50: 14.1 µM (inactive)

## Cn1c2ccccc2c(=NNc2cccc(C(=O)O)c2)c2ccccc21
[1]
  GI50: 5.85 µM (inactive)
[14]
  GI50: 11.3 µM (inactive)
[15]
  GI50: 12.7 µM (inactive)
[2]
  GI50: 3.37 µM (inactive)
[3]
  GI50: 19.6 µM (inactive)
[4]
  GI50: 3.4 µM (inactive)
[5]
  GI50: 3.97 µM (inactive)
[16]
  GI50: 12.1 µM (inactive)
[6]
  GI50: 4.86 µM (inactive)
[7]
  GI50: 12.4 µM (inactive)
[8]
  GI50: 14.4 µM (inactive)
[17]
  GI50: 5.77 µM (inactive)
[9]
  GI50: 5.96 µM (inactive)
[18]
  GI50: 19.2 µM (inactive)
[19]
  GI50: 19.2 µM (inactive)
[10]
  GI50: 16.8 µM (inactive)
[11]
  GI50: 6.55 µM (inactive)
[13]
  GI50: 16.9 µM (inactive)

## COc1cc2c(cc1O)-c1c(cnn1-c1ccc([N+](=O)[O-])cc1)CCC2
[1]
  GI50: 1.82 µM (inactive)
[15]
  GI50: 21.9 µM (inactive)
[2]
  GI50: 32.9 µM (inactive)
[3]
  GI50: 16.6 µM (inactive)
[4]
  GI50: 26.8 µM (inactive)
[5]
  GI50: 1.02 µM (active)
[16]
  GI50: 15.7 µM (inactive)
[6]
  GI50: 10.3 µM (inactive)
[7]
  GI50: 19.1 µM (inactive)
[8]
  GI50: 22.4 µM (inactive)
[17]
  GI50: 19.7 µM (inactive)
[9]
  GI50: 4.76 µM (inactive)
[18]
  GI50: 11.1 µM (inactive)
[19]
  GI50: 20.4 µM (inactive)
[10]
  GI50: 17.4 µM (inactive)
[11]
  GI50: 2.86 µM (inactive)
[13]
  GI50: 1.79 µM (inactive)

## CC1(C)OC(=O)C2(O1)C(=O)C1CCCCC12 (stereo not given)
[1]
  GI50: > 100 µM (inactive)
[15]
  GI50: 62.8 µM (inactive)
[2]
  GI50: > 100 µM (inactive)
[3]
  GI50: > 100 µM (inactive)
[4]
  GI50: 5.75 µM (inactive)
[5]
  GI50: > 100 µM (inactive)
[16]
  GI50: 45.4 µM (inactive)
[7]
  GI50: 9.73 µM (inactive)
[8]
  GI50: 44.6 µM (inactive)
[17]
  GI50: > 100 µM (inactive)
[9]
  GI50: > 100 µM (inactive)
[19]
  GI50: > 100 µM (inactive)
[10]
  GI50: > 100 µM (inactive)
[11]
  GI50: 3.63 µM (inactive)
[13]
  GI50: 82.4 µM (inactive)

## Cc1ccc(S(=O)(=O)Nn2c(-c3ccccc3)c(C#N)c(-c3ccc([N+](=O)[O-])cc3)c(C#N)c2=O)cc1
[1]
  GI50: > 100 µM (inactive)
[14]
  GI50: 39.4 µM (inactive)
[15]
  GI50: > 100 µM (inactive)
[3]
  GI50: > 100 µM (inactive)
[4]
  GI50: 61.2 µM (inactive)
[5]
  GI50: 45.6 µM (inactive)
[16]
  GI50: > 100 µM (inactive)
[6]
  GI50: > 100 µM (inactive)
[7]
  GI50: > 100 µM (inactive)
[8]
  GI50: > 100 µM (inactive)
[17]
  GI50: > 100 µM (inactive)
[9]
  GI50: 25.8 µM (inactive)
[18]
  GI50: > 100 µM (inactive)
[19]
  GI50: > 100 µM (inactive)
[10]
  GI50: > 100 µM (inactive)
[11]
  GI50: > 100 µM (inactive)
[13]
  GI50: > 100 µM (inactive)

## CC(=O)N1C(C(=O)NN2CCOCC2)CSC1c1ccccc1 (stereo not given)
[1]
  GI50: > 100 µM (inactive)
[15]
  GI50: > 100 µM (inactive)
[2]
  GI50: > 100 µM (inactive)
[3]
  GI50: > 100 µM (inactive)
[4]
  GI50: > 100 µM (inactive)
[5]
  GI50: > 100 µM (inactive)
[16]
  GI50: > 100 µM (inactive)
[6]
  GI50: > 100 µM (inactive)
[7]
  GI50: > 100 µM (inactive)
[8]
  GI50: > 100 µM (inactive)
[17]
  GI50: > 100 µM (inactive)
[9]
  GI50: > 100 µM (inactive)
[18]
  GI50: > 100 µM (inactive)
[10]
  GI50: > 100 µM (inactive)
[11]
  GI50: > 100 µM (inactive)
[12]
  GI50: > 100 µM (inactive)
[13]
  GI50: > 100 µM (inactive)

## Nc1n[n+](CC(=O)c2ccccc2)c2sc(-c3ccccc3)nn12
[1]
  GI50: > 100 µM (inactive)
[15]
  GI50: > 100 µM (inactive)
[2]
  GI50: 82.4 µM (inactive)
[3]
  GI50: 61.2 µM (inactive)
[4]
  GI50: 51.4 µM (inactive)
[5]
  GI50: 90.6 µM (inactive)
[16]
  GI50: > 100 µM (inactive)
[6]
  GI50: > 100 µM (inactive)
[7]
  GI50: > 100 µM (inactive)
[8]
  GI50: > 100 µM (inactive)
[17]
  GI50: 78.2 µM (inactive)
[9]
  GI50: 60 µM (inactive)
[18]
  GI50: 74.8 µM (inactive)
[19]
  GI50: > 100 µM (inactive)
[10]
  GI50: > 100 µM (inactive)
[11]
  GI50: > 100 µM (inactive)
[13]
  GI50: 13.9 µM (inactive)

## CCN(CC)CCC(=O)O[C@H]1CC[C@H](CC(C)[C@H]2CC(=O)C(C)C=C(C)[C@H](OC(=O)CCN(CC)CC)C(OC)C(=O)[C@@H](C)CC(C)/C=C/C=C/C=C(C)C(OC)CC3CC[C@H](C)[C@](O)(O3)C(=O)C(=O)N3CCCCC3C(=O)O2)CC1OC (stereo not given in full)
[1]
  GI50: 0.348 µM (active)
[15]
  GI50: < 0.01 µM (active)
[3]
  GI50: 0.35 µM (active)
[4]
  GI50: < 0.026 µM (active)
[5]
  GI50: 0.0185 µM (active)
[16]
  GI50: 0.0209 µM (active)
[6]
  GI50: 0.157 µM (active)
[7]
  GI50: < 0.0132 µM (active)
[8]
  GI50: 1.31 µM (inactive)
[17]
  GI50: 0.0362 µM (active)
[18]
  GI50: 0.0185 µM (active)
[19]
  GI50: 0.0284 µM (active)
[10]
  GI50: 0.0214 µM (active)
[11]
  GI50: 0.0847 µM (active)
[13]
  GI50: 0.0448 µM (active)

## Cc1ccc(S(=O)(=O)NC(=O)N[C@@H](Cc2c[nH]cn2)C(=O)O)cc1
[1]
  GI50: > 100 µM (inactive)
[14]
  GI50: > 100 µM (inactive)
[15]
  GI50: > 100 µM (inactive)
[2]
  GI50: > 100 µM (inactive)
[3]
  GI50: > 100 µM (inactive)
[4]
  GI50: > 100 µM (inactive)
[5]
  GI50: > 100 µM (inactive)
[6]
  GI50: > 100 µM (inactive)
[7]
  GI50: > 100 µM (inactive)
[8]
  GI50: > 100 µM (inactive)
[17]
  GI50: > 100 µM (inactive)
[9]
  GI50: 37.3 µM (inactive)
[18]
  GI50: > 100 µM (inactive)
[19]
  GI50: > 100 µM (inactive)
[10]
  GI50: > 100 µM (inactive)
[11]
  GI50: > 100 µM (inactive)
[13]
  GI50: > 100 µM (inactive)
